Data from ChEMBL document CHEMBL3885861, “Open TG-GATES”.

Species on record: Rattus norvegicus
Assay: Open TG-GATES - Regimen: Single
Type: toxicity, organism-based, Sprague-Dawley
Set-up: regimen Single, gender Male, age 6 weeks
Conditions: in vivo, po, route gavage; for APTT / Bas / Eos / Fbg / Hb / Ht / Lym / MCH / MCHC / MCV / Mono / Neu / PT / Plat / RBC / Ret / WBC: tissue Blood; for KIDNEY_L / KIDNEY_R / KIDNEY_TOTAL: tissue Kidney; for LIVER: tissue Liver; for A/G / ALP / ALT / AST / BUN / CRE / Ca / Cl / DBIL / GLC / IP / K / LDH / Na / PL / RALB / TBIL / TC / TG / TP / gamma-GTP: tissue Plasma
[1] = 0 mg/kg, 3 h, dose level Control
[2] = 0 mg/kg, 6 h, dose level Control
[3] = 0 mg/kg, 9 h, dose level Control
[4] = 0 mg/kg, 24 h, dose level Control

## Cc1cccc(C)c1OCC(C)N (centres undefined) [MEXILETINE]
[1]
  TERMINAL_BW: 222.3 g
  APTT: 22.2 s
  Bas: 0%
  Eos: 0.8%
  Fbg: 310.6 mg/dL
  Hb: 12.8 g/dL
  Ht: 39.4%
  Lym: 80.6%
  MCH: 21 pg
  MCHC: 32.4%
  MCV: 64.8 fL
  Mono: 1.8%
  Neu: 16.2%
  PT: 16.1 s
  Plat: 107.7 x10_4/uL
  RBC: 608.6 x10_4/ul
  Ret: 8.8%
  WBC: 96.5 x10_2/uL
  KIDNEY_L: 0.9 g
  KIDNEY_R: 0.9 g
  KIDNEY_TOTAL: 1.9 g
  LIVER: 10.2 g
  A/G: 1.2
  ALP: 1498 IU/L
  ALT: 45.2 IU/L
  AST: 77.4 IU/L
  BUN: 13.6 mg/dL
  CRE: 0.2 mg/dL
  Ca: 10.6 mg/dL
  Cl: 107 meq/L
  DBIL: 0 mg/dL
  GLC: 192 mg/dL
  IP: 8.5 mg/dL
  K: 4 meq/L
  LDH: 181.2 IU/L
  Na: 142 meq/L
  PL: 132.4 mg/dL
  RALB: 3 g/dL
  TBIL: 0.016 mg/dL
  TC: 77 mg/dL
  TG: 62.8 mg/dL
  TP: 5.5 g/dL
  gamma-GTP: 1.6 IU/L
[2]
  TERMINAL_BW: 218.2 g
  APTT: 22.4 s
  Bas: 0%
  Eos: 0.8%
  Fbg: 305.2 mg/dL
  Hb: 12.9 g/dL
  Ht: 39.5%
  Lym: 78.4%
  MCH: 20.6 pg
  MCHC: 32.7%
  MCV: 63.1 fL
  Mono: 2.8%
  Neu: 17.2%
  PT: 16 s
  Plat: 113.7 x10_4/uL
  RBC: 627.6 x10_4/ul
  Ret: 7.8%
  WBC: 112.2 x10_2/uL
  KIDNEY_L: 1 g
  KIDNEY_R: 1 g
  KIDNEY_TOTAL: 2 g
  LIVER: 9.4 g
  A/G: 1.3
  ALP: 1119.6 IU/L
  ALT: 37.4 IU/L
  AST: 70.2 IU/L
  BUN: 10.4 mg/dL
  CRE: 0.2 mg/dL
  Ca: 10.5 mg/dL
  Cl: 105.2 meq/L
  DBIL: 0 mg/dL
  GLC: 192.4 mg/dL
  IP: 9.2 mg/dL
  K: 4.2 meq/L
  LDH: 187.6 IU/L
  Na: 140.6 meq/L
  PL: 125 mg/dL
  RALB: 3 g/dL
  TBIL: 0.028 mg/dL
  TC: 72 mg/dL
  TG: 66.2 mg/dL
  TP: 5.4 g/dL
  gamma-GTP: 1.4 IU/L
[3]
  TERMINAL_BW: 213.9 g
  APTT: 22.8 s
  Bas: 0%
  Eos: 0.8%
  Fbg: 311 mg/dL
  Hb: 12.9 g/dL
  Ht: 40.1%
  Lym: 77.2%
  MCH: 20.7 pg
  MCHC: 32.2%
  MCV: 64.1 fL
  Mono: 2.4%
  Neu: 19.6%
  PT: 16.2 s
  Plat: 105.6 x10_4/uL
  RBC: 625.4 x10_4/ul
  Ret: 8%
  WBC: 86.8 x10_2/uL
  KIDNEY_L: 0.9 g
  KIDNEY_R: 0.9 g
  KIDNEY_TOTAL: 1.8 g
  LIVER: 8.7 g
  A/G: 1.3
  ALP: 1333.8 IU/L
  ALT: 35.6 IU/L
  AST: 66.2 IU/L
  BUN: 12.2 mg/dL
  CRE: 0.2 mg/dL
  Ca: 10.5 mg/dL
  Cl: 105.2 meq/L
  DBIL: 0 mg/dL
  GLC: 188.8 mg/dL
  IP: 9.4 mg/dL
  K: 4.2 meq/L
  LDH: 133.6 IU/L
  Na: 141.6 meq/L
  PL: 122 mg/dL
  RALB: 3 g/dL
  TBIL: 0.02 mg/dL
  TC: 66.2 mg/dL
  TG: 53.2 mg/dL
  TP: 5.5 g/dL
  gamma-GTP: 1 IU/L
[4]
  TERMINAL_BW: 223.6 g
  APTT: 20.9 s
  Bas: 0%
  Eos: 1%
  Fbg: 304 mg/dL
  Hb: 13 g/dL
  Ht: 40.2%
  Lym: 78.4%
  MCH: 20.6 pg
  MCHC: 32.3%
  MCV: 63.6 fL
  Mono: 2%
  Neu: 17.6%
  PT: 16.4 s
  Plat: 128.5 x10_4/uL
  RBC: 632.6 x10_4/ul
  Ret: 6.7%
  WBC: 88.8 x10_2/uL
  KIDNEY_L: 1 g
  KIDNEY_R: 1 g
  KIDNEY_TOTAL: 1.9 g
  LIVER: 9.9 g
  A/G: 1.3
  ALP: 1840.4 IU/L
  ALT: 49.8 IU/L
  AST: 73.8 IU/L
  BUN: 15.6 mg/dL
  CRE: 0.2 mg/dL
  Ca: 10.7 mg/dL
  Cl: 107 meq/L
  DBIL: 0 mg/dL
  GLC: 196.4 mg/dL
  IP: 7.6 mg/dL
  K: 4 meq/L
  LDH: 166 IU/L
  Na: 143.2 meq/L
  PL: 130.6 mg/dL
  RALB: 3.1 g/dL
  TBIL: 0.008 mg/dL
  TC: 70 mg/dL
  TG: 74.6 mg/dL
  TP: 5.6 g/dL
  gamma-GTP: 1.8 IU/L
40 mg/kg, 3 h, dose level Low
  TERMINAL_BW: 218.4 g
  APTT: 20.9 s
  Bas: 0%
  Eos: 0.4%
  Fbg: 302.8 mg/dL
  Hb: 13.1 g/dL
  Ht: 40.8%
  Lym: 80.4%
  MCH: 20.6 pg
  MCHC: 32.1%
  MCV: 64.2 fL
  Mono: 2.2%
  Neu: 16%
  PT: 15.9 s
  Plat: 119 x10_4/uL
  RBC: 634.2 x10_4/ul
  Ret: 7.8%
  WBC: 92.2 x10_2/uL
  KIDNEY_L: 1 g
  KIDNEY_R: 1 g
  KIDNEY_TOTAL: 1.9 g
  LIVER: 10.2 g
  A/G: 1.2
  ALP: 1641.6 IU/L
  ALT: 51 IU/L
  AST: 79.6 IU/L
  BUN: 13.6 mg/dL
  CRE: 0.2 mg/dL
  Ca: 10.7 mg/dL
  Cl: 105.6 meq/L
  DBIL: 0 mg/dL
  GLC: 188.8 mg/dL
  IP: 8.8 mg/dL
  K: 4 meq/L
  LDH: 207.4 IU/L
  Na: 142.4 meq/L
  PL: 149.2 mg/dL
  RALB: 3 g/dL
  TBIL: 0.01 mg/dL
  TC: 84.4 mg/dL
  TG: 67.6 mg/dL
  TP: 5.5 g/dL
  gamma-GTP: 1.2 IU/L
40 mg/kg, 6 h, dose level Low
  TERMINAL_BW: 214 g
  APTT: 23.3 s
  Bas: 0%
  Eos: 0.8%
  Fbg: 314 mg/dL
  Hb: 13.5 g/dL
  Ht: 40.8%
  Lym: 83.6%
  MCH: 20.9 pg
  MCHC: 33.2%
  MCV: 63 fL
  Mono: 2.6%
  Neu: 11.4%
  PT: 16 s
  Plat: 118.1 x10_4/uL
  RBC: 647.4 x10_4/ul
  Ret: 7.2%
  WBC: 88.1 x10_2/uL
  KIDNEY_L: 0.9 g
  KIDNEY_R: 0.9 g
  KIDNEY_TOTAL: 1.8 g
  LIVER: 9.2 g
  A/G: 1.2
  ALP: 1364.6 IU/L
  ALT: 43 IU/L
  AST: 72.8 IU/L
  BUN: 10.4 mg/dL
  CRE: 0.2 mg/dL
  Ca: 10.6 mg/dL
  Cl: 105.6 meq/L
  DBIL: 0 mg/dL
  GLC: 180.8 mg/dL
  IP: 8.5 mg/dL
  K: 4.2 meq/L
  LDH: 153.4 IU/L
  Na: 141 meq/L
  PL: 128.8 mg/dL
  RALB: 3 g/dL
  TBIL: 0.022 mg/dL
  TC: 69 mg/dL
  TG: 68 mg/dL
  TP: 5.5 g/dL
  gamma-GTP: 1.4 IU/L
40 mg/kg, 9 h, dose level Low
  TERMINAL_BW: 217.2 g
  APTT: 22.4 s
  Bas: 0%
  Eos: 0.6%
  Fbg: 293.8 mg/dL
  Hb: 12.7 g/dL
  Ht: 39.7%
  Lym: 73.6%
  MCH: 20.3 pg
  MCHC: 32%
  MCV: 63.6 fL
  Mono: 2.6%
  Neu: 22%
  PT: 16.2 s
  Plat: 106.8 x10_4/uL
  RBC: 624.6 x10_4/ul
  Ret: 8.1%
  WBC: 122.3 x10_2/uL
  KIDNEY_L: 0.9 g
  KIDNEY_R: 0.9 g
  KIDNEY_TOTAL: 1.9 g
  LIVER: 9.3 g
  A/G: 1.2
  ALP: 1650.8 IU/L
  ALT: 40.2 IU/L
  AST: 65.2 IU/L
  BUN: 11.6 mg/dL
  CRE: 0.2 mg/dL
  Ca: 10.4 mg/dL
  Cl: 106.2 meq/L
  DBIL: 0.002 mg/dL
  GLC: 192.2 mg/dL
  IP: 9.6 mg/dL
  K: 4.2 meq/L
  LDH: 127.2 IU/L
  Na: 140.6 meq/L
  PL: 129.6 mg/dL
  RALB: 3 g/dL
  TBIL: 0.022 mg/dL
  TC: 71.4 mg/dL
  TG: 77 mg/dL
  TP: 5.5 g/dL
  gamma-GTP: 1.2 IU/L
40 mg/kg, 24 h, dose level Low
  TERMINAL_BW: 232.2 g
  APTT: 20.7 s
  Bas: 0%
  Eos: 1.4%
  Fbg: 297.2 mg/dL
  Hb: 12.3 g/dL
  Ht: 38.5%
  Lym: 80.2%
  MCH: 19.9 pg
  MCHC: 31.9%
  MCV: 62.6 fL
  Mono: 2.6%
  Neu: 16%
  PT: 16.5 s
  Plat: 114.4 x10_4/uL
  RBC: 616.2 x10_4/ul
  Ret: 7.5%
  WBC: 87.8 x10_2/uL
  KIDNEY_L: 1 g
  KIDNEY_R: 1 g
  KIDNEY_TOTAL: 2 g
  LIVER: 10.5 g
  A/G: 1.2
  ALP: 1448.8 IU/L
  ALT: 44.6 IU/L
  AST: 73.4 IU/L
  BUN: 15.8 mg/dL
  CRE: 0.2 mg/dL
  Ca: 10.8 mg/dL
  Cl: 105.6 meq/L
  DBIL: 0 mg/dL
  GLC: 184.2 mg/dL
  IP: 7.6 mg/dL
  K: 4.1 meq/L
  LDH: 158.6 IU/L
  Na: 141.8 meq/L
  PL: 140 mg/dL
  RALB: 3.1 g/dL
  TBIL: 0.01 mg/dL
  TC: 79 mg/dL
  TG: 89.8 mg/dL
  TP: 5.5 g/dL
  gamma-GTP: 1.6 IU/L
